Data reported in patent publication US5648386A (priority 1990, dated 1997).
“Also recorded” adds a separate entry of the source.

Key:
[1] = test system: β-receptors of the skeletal musculature; assay: β-mimetic effect on skeletal musculature (BOWMAN and NOTT): tension of incompletely tetanically contracting M. soleus of anaesthetized cats i.v.; format: in vivo; settings: for Reduction in tension in % (x): anaesthetized cats, M. soleus, n=5
Method: (§1) 1. […] They were also compared for their acute toxicity.
The β-mimetic effect on the skeletal musculature was tested using the method of BOWMAN and NOTT (Pharmacol. Rev. 21, 27 (1969)). This investigates the influence on the tension of the incompletely tetanically contracting M. soleus of anaesthetized cats after i.v. administration.

[2] = test system: lambs; assay: performance enhancing effect in lambs (feed, 6 weeks); format: in vivo, Suffolk×Galway wether lambs; settings: for Weight of carcass / Final weight / Composition of carcass tissue (without bones): Protein / Feed utilization in g of weight gain per kg of feed / Composition of carcass tissue (without bones): Fat / Weight gain in g per day / Composition of carcass tissue (without bones): Water: 2 mg/kg in feed, 6 weeks; for Starting weight: baseline, control 34.4
Source text: 2. […] At the same time steps were taken to ensure that the lambs were offered at least 10% excess feed during the experimental period. The lambs were then killed and the following parameters were obtained: […]

[3] = test system: animals; settings: U.S. Pat. No. 4,407,819; cited from earlier work
[4] = test system: fat cells; assay: β-mimetic effect on fat cells: lipolytic effect (free fatty acids in blood) in conscious rabbits i.v.; format: in vivo; settings: for ED150 (dose which resulted in a 50% increase in the free fatty acid in the blood): conscious rabbits, linear regression, range in parentheses
Source text: as §1
The β-mimetic effect on the fat cells was investigated in terms of a lipolytic effect on conscious rabbits after i.v. administration.

[5] = test system: mice; assay: acute toxicity in male and female mice i.v.; format: in vivo
Method: as §1
(§2) The acute toxicity was measured in male and female mice weighing between 20 and 25 g after intravenous administration. An LD50 was calculated by […] from the percentage of animals which died within 14 days of being given the substance.

[6] = acute toxicity in male and female mice i.v.; format: in vivo; settings: mouse, in vivo, iv, male and female mice, death within 14 days, range in parentheses
Method: as §1, §2

[7] = overall comparison of the enantiomers (biological effects, use to risk); format: in vivo; settings: (-)- vs (+)-cimaterol, words

| SMILES | Reduction in tension in % (x) ([1]; dose 0.5 μg/kg) [%] | Starting weight [2] [kg] | ED150 (dose which resulted in a 50% increase in the free fatty acid in the blood) [4] | Weight of carcass ([2]; control 22.8, 2 mg/kg) [kg] | Final weight ([2]; control 45.4, 2 mg/kg) [kg] | Composition of carcass tissue (without bones): Protein ([2]; control 140, 2 mg/kg) [g per kg] | Feed utilization in g of weight gain per kg of feed ([2]; control 190, 2 mg/kg) | Composition of carcass tissue (without bones): Fat ([2]; control 248, 2 mg/kg) [g per kg] | Weight gain in g per day ([2]; control 259, 2 mg/kg) [g per day] | Composition of carcass tissue (without bones): Water ([2]; control 501, 2 mg/kg) [g per kg] | also measured |
| --- | --- | --- | --- | --- | --- | --- | --- | --- | --- | --- | --- |
| CC(C)NCC(O)c1ccc(N)c(C#N)c1 (racemic) [Cimaterol, 1-(4'-amino-3'-cyano-phenyl)-2-isopropylaminoethanol, reference compound] | 38.3 | 34.9 |  |  |  |  |  |  |  |  | Weight of carcass ([2]; control 22.8): 24.0 kg; Final weight ([2]; control 45.4): 46.0 kg; Composition of carcass tissue (without bones): Protein ([2]; control 140): 167 g per kg; Feed utilization in g of weight gain per kg of feed ([2]; control 190): 196 g of weight gain per kg of fee; Composition of carcass tissue (without bones): Fat ([2]; control 248): 265 g per kg; Weight gain in g per day ([2]; control 259): 275 g per day; Composition of carcass tissue (without bones): Water ([2]; control 501): 556 g per kg; performance-enhancing effect [3]: performance-enhancing effect |
| CC(C)NCC(O)c1ccc(N)c(C#N)c1 (single isomer, unassigned; (+)) [(+)-Cimaterol, (+)-1-(4'-Amino-3'-cyano-phenyl)-2-isopropylamino-ethanol] |  | 34.8 | 9.770 (7.440-12.700) μg/kg | 22.5 | 45.7 | 151 | 184 g of weight gain per kg of fee | 341 | 268 | 501 | Reduction in tension in % (x) ([1]; dose 50.0 μg/kg): 33.7%; doses needed to achieve a 50% increase in the free fatty acids, times greater than those of the corresponding L-enantiomer ([4]; D- vs L-enantiomer, rabbits): about 100 times; LD50 ([5]; male and female mice, death within 14 days, range in parentheses, 20160 min): 86.3 (80.6-92.3) mg/kg; toxicity of the D-enantiomer compared with the L-enantiomer ([5]; mice, words): the same toxicity as the L-enantiomer |
| CC(C)NCC(O)c1ccc(N)c(C#N)c1 (single isomer, unassigned; (-)) [(-)-Cimaterol, (-)-1-(4'-Amino-3'-cyano-phenyl)-2-isopropylamino-ethanol] | 42.1 | 34.2 | 0.098 (0.078-0.118) μg/kg | 24.1 | 48.0 | 177 | 220 g of weight gain per kg of fee | 252 | 324 | 557 | times more effective than the corresponding D-enantiomer on the β-receptors of the skeletal musculature ([1]; L- vs D-enantiomer, cats): more than 100 times; LD50 at 336 h [6]: 74.8 mg/kg; carrier of the biological / desired effects of cimaterol [7]: the only carrier of the biological effects of cimaterol; also recorded: the sole carrier of the desired effects |
